According to US11957680B2, “Pyruvate kinase activators for use in treating blood disorders” (Agios Pharmaceuticals, Inc., priority 2017, dated 2024):

Experiments:
wild type PKR [1] = molecular target: T1, wild type PKR (Homo sapiens, UniProt P30613); assay: PKR (wild type) enzyme AC50 assay, LDH/NADH-coupled, absorbance at 340 nm; format: biochemical; details: Table 4, AC50, enzyme assay; for EC50: read-out: PKR WT
Outline: (§1)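 Wild-type or mutant PKR (40-400 ng/well) was preincubated with compound for 60 min at room temperature in 100 mM KCl, 50 mM Tris pH 7.5, 5 mM MgCl2, 1 mM DTT, 0.03% BSA with PEP (0.1-0.5 mM), 180 μM NADH and 0.5 units LDH. ADP (0.2-1.65 mM) started the reaction, followed at 340 nm.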

PKR K410E = PKR K410E (Homo sapiens, UniProt P30613, K410E); assay: PKR mutant assay (K410E), AC50, LDH/NADH-coupled, absorbance at 340 nm; format: biochemical; details: Table 4; AC50, enzyme assay
Outline: as §1

PKR R510Q = PKR R510Q (Homo sapiens, UniProt P30613, R510Q); assay: PKR mutant assay (R510Q), AC50, LDH/NADH-coupled, absorbance at 340 nm; format: biochemical; details: Table 4, AC50, enzyme assay; for EC50: read-out: PK R510Q
Outline: as §1

wild type PKR [2] = molecular target: T1, wild type PKR; assay: Cell based ATP assay in purified red blood cells (Cell-Titer-Glo); parameters: endogenous in cells; host or cells: purified red blood cells from healthy volunteers; details: Table 4; AC50, RBCs, overnight at 37° C., ATP levels
Outline: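 RBCs from healthy human donors' K2EDTA blood were leukocyte-depleted by filtration and resuspended in AGAM (PBS, 1% glucose, adenine, mannitol). Cells at 1×10^7 cells/mL were incubated overnight at 37 °C with serially diluted compound at 0.1% DMSO, and ATP was read by Cell-Titer-Glo luminescence.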

Chain of PKR K410E (P30613 whole entry K410E): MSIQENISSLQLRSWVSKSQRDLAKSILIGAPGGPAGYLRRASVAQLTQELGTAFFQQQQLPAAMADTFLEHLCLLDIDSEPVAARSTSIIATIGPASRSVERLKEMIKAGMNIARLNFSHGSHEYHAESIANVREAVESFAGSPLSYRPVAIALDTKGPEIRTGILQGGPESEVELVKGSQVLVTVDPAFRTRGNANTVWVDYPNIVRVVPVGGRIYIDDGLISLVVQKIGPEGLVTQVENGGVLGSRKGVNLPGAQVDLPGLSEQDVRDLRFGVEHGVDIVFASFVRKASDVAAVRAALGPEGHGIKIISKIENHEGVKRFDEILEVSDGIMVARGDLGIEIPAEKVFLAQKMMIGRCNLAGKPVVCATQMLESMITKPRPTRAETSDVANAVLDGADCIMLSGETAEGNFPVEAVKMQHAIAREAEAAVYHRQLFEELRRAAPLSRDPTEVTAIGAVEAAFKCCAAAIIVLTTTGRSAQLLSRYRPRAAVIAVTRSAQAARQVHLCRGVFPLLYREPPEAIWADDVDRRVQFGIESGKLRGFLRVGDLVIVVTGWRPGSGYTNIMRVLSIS
Chain of PKR R510Q (P30613 whole entry R510Q): as the sequence (P30613 whole entry K410E) above, with E410K, R510Q counted along it
T1 sequence (P30613 whole entry): as the sequence (P30613 whole entry K410E) above, with E410K counted along it

EC50 (wild type PKR [1]) [nM]	PKR K410E (PKR K410E)	PK R510Q (PKR R510Q)	Cell based ATP assay (wild type PKR [2])	EC50 (PKR K410E) [nM]	EC50 (PKR R510Q) [nM]	PKR WT (wild type PKR [1])	EC50 (wild type PKR [2]) [nM]	SMILES
> 800	No Fit	No Fit	No Fit	–	–	–	–	O=c1c2c(cnn1Cc1ccccc1)c1sc(Cc3ccccn3)nc1n2-c1ccccc1 [Compound 405]
> 800	–	–	No Fit	> 800	> 800	–	–	Cn1ccc(Cn2ncc3c4sc(CCc5cccnc5)nc4n(C)c3c2=O)n1 [Compound 406]
–	–	–	No Fit	> 800	< 300	No Fit	–	O=c1c2c(cnn1Cc1ccccc1)c1sc(Cc3cc[nH]n3)nc1n2Cc1ccccc1 [Compound 407]
> 800	–	–	–	> 800	301 to 800	–	> 1000	O=c1c2c(cnn1Cc1ccccc1)c1sc(Cc3cc[nH]n3)nc1n2C1CC1 [Compound 408]
> 800	No Fit	No Fit	No Fit	–	–	–	–	CSc1nc2c(s1)c1cnn(Cc3ccccc3)c(=O)c1n2-c1nccs1 [Compound 409]
–	–	No Fit	–	> 800	–	No Fit	> 1000	CS(=O)(=O)c1nc2c(s1)c1cnn(Cc3ccccc3)c(=O)c1n2-c1nccs1 [Compound 410]
> 800	–	–	No Fit	> 800	> 800	–	–	O=c1c2c(cnn1Cc1ccccc1)c1sc(Cc3ccccn3)nc1n2-c1nccs1 [Compound 411]
